Laboratory results from patent publication US8088757B2, “Betulinol derivatives as anti-cancer agents” (priority 2004, dated 2012).
Read-outs that look alike come from different tables or passages of the source.

Legend:
[1] = test system: LNCaP; assay: MTT cytotoxicity assay, LNCaP prostate cancer cells; format: cell-based, human
Method: The human prostate cancer LNCaP, PC-3, and DU-145 cell lines, as well as human fibroblast cell line, were obtained from the American Type Culture Collection (“ATCC”) and maintained in RPMI-1640, F-12k, and MEM mediums, respectively, supplemented with 10% FBS. Cell lines were maintained at 37° C. under a humidified atmosphere and 5% CO2 for testing of the cytotoxicity of betulinol derivatives. The cytotoxicity assay was performed using MTT assay according to the instructions of ATCC protocol. Cells 1×10^5 in 0.1 ml/well were plated in 96-well culture plates (Costar) and incubated with a different dilution of betulinol derivatives for 24, 48, and 72 hours. Ten μl of 3-[4,5-dimethylthiazol-2-yl]-2,5 diphenyl tetrazolium bromide was added into each well at the end of each incubation period. The reaction product, formazan, was dissolved in the detergent, and the absorbance was read at 540 nm (Ref).
(§1) However, these compounds were not tested on prostate cancer LNCaP cell line by NCI. […] The anti-tumor activity of the compounds was determined at three doses and the total growth inhibition kill effect as pertinent of the control at 24, 48, and 72 hours as presented in Table 11.

[2] = test system: HOP-92; assay: In vitro cytotoxicity, Lung (2), HOP-92; format: cell-based, human
Method: as §1

[3] = test system: OVACR-3; assay: In vitro cytotoxicity, Ovarian (2), OVACR-3; format: cell-based, human
Method: as §1

[4] = test system: U251; assay: In vitro cytotoxicity, CNS (2), U251; format: cell-based, human
[5] = test system: TK-10; assay: In vitro cytotoxicity, Renal (2), TK-10; format: cell-based, human
Method: as §1

[6] = test system: MALME-3M; assay: In vitro cytotoxicity, Melanoma (2), MALME-3M; format: cell-based, human
[7] = test system: PC-3; assay: In vitro cytotoxicity, Prostate (2), PC-3; format: cell-based, human
[8] = test system: CAKI-1; assay: In vitro cytotoxicity, Renal (2), CAKI-1; format: cell-based, human
Method: as §1

[9] = test system: MCF7; assay: In vitro cytotoxicity, Breast (2), MCF7; format: cell-based, human
[10] = test system: T-47d; assay: In vitro cytotoxicity, Breast (2), T-47d; format: cell-based, human
Method: as §1

[11] = test system: RXF 393; assay: In vitro cytotoxicity, Renal (2), RXF 393; format: cell-based, human
[12] = test system: DU-145; assay: In vitro cytotoxicity, Prostate (2), DU-145; format: cell-based, human
[13] = test system: SF-268; assay: In vitro cytotoxicity, CNS (2), SF-268; format: cell-based, human
[14] = test system: NCI-H322M; assay: In vitro cytotoxicity, Lung (2), NCI-H322M; format: cell-based, human
Method: as §1

[15] = test system: NCI-H460; assay: In vitro cytotoxicity, Lung (2), NCI-H460; format: cell-based, human
Method: as §1

[16] = test system: OVCAR-5; assay: In vitro cytotoxicity, Ovarian (2), OVCAR-5; format: cell-based, human
Method: as §1

[17] = Tolerability of solubilized drug in mice with prostate cancer cell xenografts; format: in vivo; settings: 22% ethanol, 2×10^−3 mol per liter of betulonic acid
[18] = test system: 184B5/HER; assay: In vitro cytotoxicity, Breast (1), 184B5/HER; format: cell-based; settings: 1 × 10^−4 M
[19] = Homo sapiens, 24 hours, 2.5 × 10^−5 M, read-out: Growth Inhibition %
[20] = Homo sapiens, 24 hours, 2.5 × 10^−6 M, read-out: Growth Inhibition %
[21] = Homo sapiens, 24 hours, 2.5 × 10^−7 M, read-out: Growth Inhibition %
[22] = Homo sapiens, 48 hours, 2.5 × 10^−5 M, read-out: Growth Inhibition %
[23] = Homo sapiens, 48 hours, 2.5 × 10^−6 M, read-out: Growth Inhibition %
[24] = Homo sapiens, 48 hours, 2.5 × 10^−7 M, read-out: Growth Inhibition %

Q: What does the source list for `C=C(C)C1CCC2(C(=O)NCCCCC(NC(=O)OC(C)(C)C)C(=O)OC)CC[C@]3(C)[C@H](CC[C@@H]4[C@@]5(C)CCC(=O)C(C)(C)[C@@H]5CC[C@]43C)C12` (stereo partly drawn) [Monomer]?
A: cells killed ([1]; 1×10^−4 M): ~80%; inhibition at 100 µM ([1]; Homo sapiens, 48 hours, 1 × 10^−4 M, read-out: Growth Inhibition %): 82.8 ± 14.3%

Q: Which inhibition at 25 µM [1, 19] does the source give for `C=C(C)C1CCC2(CO)CC[C@]3(C)[C@H](CC[C@@H]4[C@@]5(C)CCC(O)C(C)(C)[C@@H]5CC[C@]43C)C12` (stereo partly drawn) [Compound 1, Betulinol] here?
A: 47.2%

Q: What about the inhibition at 2.5 µM [1, 20] of the same molecule?
A: 11.9%

Q: What about the inhibition at 0.25 µM [1, 21] of the same molecule?
A: 8.24%

Q: What about the inhibition at 25 µM [1, 22] of the same molecule?
A: 31%

Q: And the inhibition at 2.5 µM [1, 23]?
A: 13.8%

Q: What about the inhibition at 0.25 µM [1, 24] of the same molecule?
A: 10.6%

Q: Which “Growth Inhibition %” value ([1]; 24 hours, 2.5 × 10^−6 M) does the source give for `C=C(C)[C@@H]1CC[C@]2(C=O)CC[C@]3(C)[C@H](CC[C@@H]4[C@@]5(C)CC[C@H](O)C(C)(C)[C@@H]5CC[C@]43C)[C@@H]12` [Compound 3, Betulin Aldehyde] here?
A: 11.0%

Q: What does the source list for `C=C(C)[C@@H]1CC[C@]2(COC(C)=O)CC[C@]3(C)[C@H](CC[C@@H]4[C@@]5(C)CC[C@H](OC(C)=O)C(C)(C)[C@@H]5CC[C@]43C)[C@@H]12` [Compound 6, Betulin Diacetate]?
A: Percent Killed ([2]; HOP-92, 1 × 10^−4 M): 100%; Percent Killed ([2]; HOP-92, 1 × 10^−5 M): 100%; Percent Killed ([2]; HOP-92, 1 × 10^−6 M): 100%; Percent Killed ([3]; OVACR-3, 1 × 10^−4 M): 100%; Percent Killed ([3]; OVACR-3, 1 × 10^−5 M): 100%; Percent Killed ([3]; OVACR-3, 1 × 10^−6 M): 96%; Percent Killed ([4]; U251, 1 × 10^−4 M): 100%; Percent Killed ([4]; U251, 1 × 10^−5 M): 100%; Percent Killed ([4]; U251, 1 × 10^−6 M): 100%; Percent Killed ([4]; U251, 1 × 10^−7 M): 100%; Percent Killed ([5]; TK-10, 1 × 10^−4 M): 100%; Percent Killed ([5]; TK-10, 1 × 10^−5 M): 100%; Percent Killed ([5]; TK-10, 1 × 10^−6 M): 49%; Percent Killed ([6]; 1 × 10^−4 M): 100%; Percent Killed ([6]; 1 × 10^−5 M): 100%; Percent Killed ([6]; 1 × 10^−6 M): 100%; Percent Killed ([6]; 1 × 10^−7 M): 100%; Percent Killed ([6]; 1 × 10^−8 M): 98%; Percent Killed ([7]; PC-3, 1 × 10^−4 M): 25%; Percent Killed ([7]; PC-3, 1 × 10^−5 M): 15%; Percent Killed ([8]; CAKI-1, 1 × 10^−4 M): 100%; Percent Killed ([8]; CAKI-1, 1 × 10^−5 M): 100%; Percent Killed ([8]; CAKI-1, 1 × 10^−6 M): 100%; inhibition at 25 µM [1, 19]: 17%; inhibition at 2.5 µM [1, 20]: 18.7%; inhibition at 0.25 µM [1, 21]: 0%; inhibition at 25 µM [1, 22]: 56.6%; inhibition at 2.5 µM [1, 23]: 46.7%; inhibition at 0.25 µM [1, 24]: 27.9%; Percent Killed ([9]; MCF7, 1 × 10^−4 M): 100%; Percent Killed ([9]; MCF7, 1 × 10^−5 M): 100%; Percent Killed ([9]; MCF7, 1 × 10^−6 M): 100%; Percent Killed ([9]; MCF7, 1 × 10^−7 M): 100%; Percent Killed ([10]; 1 × 10^−4 M): 100%; Percent Killed ([10]; 1 × 10^−5 M): 100%; Percent Killed ([10]; 1 × 10^−6 M): 100%; Percent Killed ([10]; 1 × 10^−7 M): 23%; Percent Killed ([11]; RXF 393, 1 × 10^−4 M): 100%; Percent Killed ([11]; RXF 393, 1 × 10^−5 M): 100%; Percent Killed ([11]; RXF 393, 1 × 10^−6 M): 100%; Percent Killed ([11]; RXF 393, 1 × 10^−7 M): 97%; Percent Killed ([11]; RXF 393, 1 × 10^−8 M): 15%; Percent Killed ([12]; DU-145, 1 × 10^−4 M): 100%; Percent Killed ([12]; DU-145, 1 × 10^−5 M): 100%; Percent Killed ([12]; DU-145, 1 × 10^−6 M): 100%; Percent Killed ([12]; DU-145, 1 × 10^−7 M): 100%; Percent Killed ([12]; DU-145, 1 × 10^−8 M): 27%; Percent Killed ([13]; SF-268, 1 × 10^−4 M): 100%; Percent Killed ([13]; SF-268, 1 × 10^−5 M): 100%; Percent Killed ([13]; SF-268, 1 × 10^−6 M): 100%; Percent Killed ([13]; SF-268, 1 × 10^−7 M): 75%; Percent Killed ([13]; SF-268, 1 × 10^−8 M): 15%; Percent Killed ([14]; 1 × 10^−4 M): 100%; Percent Killed ([14]; 1 × 10^−5 M): 100%; Percent Killed ([14]; 1 × 10^−6 M): 100%; Percent Killed ([15]; NCI-H460, 1 × 10^−4 M): 100%; Percent Killed ([15]; NCI-H460, 1 × 10^−5 M): 100%; Percent Killed ([15]; NCI-H460, 1 × 10^−6 M): 100%; Percent Killed ([15]; NCI-H460, 1 × 10^−7 M): 25%; Percent Killed ([16]; OVCAR-5, 1 × 10^−4 M): 100%; Percent Killed ([16]; OVCAR-5, 1 × 10^−5 M): 100%; Percent Killed ([16]; OVCAR-5, 1 × 10^−6 M): 100%

Q: For `C=C(C)[C@@H]1CC[C@]2(C(=O)O)CC[C@]3(C)[C@H](CC[C@@H]4[C@@]5(C)CC[C@H](O)C(C)(C)[C@@H]5CC[C@]43C)[C@@H]12` [Compound 2, Betulinic Acid], which “Growth Inhibition %” value ([1]; 24 hours, 2.5 × 10^−5 M) is on record?
A: 41.0%

Q: Which “Growth Inhibition %” value ([1]; 24 hours, 2.5 × 10^−7 M) does the source give for `C=C(C)[C@@H]1CC[C@]2(CO)CC[C@]3(C)[C@H](CC[C@@H]4[C@@]5(C)CC[C@H](OC(C)=O)C(C)(C)[C@@H]5CC[C@]43C)[C@@H]12` [Compound 8, 3-Acetoxy Betulin] here?
A: 0%

Q: Which tolerability [17] does the source give for `C=C(C)C1CCC2(C(=O)NCCCCC(NC(=O)OC(C)(C)C)C(=O)O)CC[C@]3(C)[C@H](CC[C@@H]4[C@@]5(C)CCC(=O)C(C)(C)[C@@H]5CC[C@]43C)C12` (stereo partly drawn) [Boc-Monomer] here?
A: well tolerated

Q: For `C=C(C)C1CCC2(COC)CCC3(C)C(CCC4C5(C)CCC(OC)C(C)(C)C5CCC43C)C12` (stereo not drawn) [Compound 7, Betulin Dimethyl ether (Cornelon)], which inhibition at 25 µM [1, 19] is on record?
A: 45%

Q: What about the inhibition at 2.5 µM [1, 20] of the same molecule?
A: 18.1%

Q: What about the inhibition at 0.25 µM [1, 21] of the same molecule?
A: 7.76%

Q: And the inhibition at 25 µM [1, 22]?
A: 50.9%

Q: And the inhibition at 2.5 µM [1, 23]?
A: 44%

Q: And the inhibition at 0.25 µM [1, 24]?
A: 27.9%

Q: What about the “Percent Killed” value ([9]; MCF7, 1 × 10^−4 M) of the same molecule?
A: 97%

Q: And the “Percent Killed” value ([13]; SF-268, 1 × 10^−4 M)?
A: 100%

Q: What about the “Percent Killed” value ([15]; NCI-H460, 1 × 10^−4 M) of the same molecule?
A: 80%

Q: And the “Percent Killed” value [18]?
A: Toxic

Q: Which inhibition at 25 µM [1, 19] does the source give for `C=C(C)C1CCC2(C=O)CCC3(C)C(CCC4C5(C)CCC(=O)C(C)(C)C5CCC43C)C12` (stereo not drawn) [Compound 5, Betulon Aldehyde] here?
A: 19%

Q: And the inhibition at 2.5 µM [1, 20]?
A: 21.9%

Q: What about the inhibition at 0.25 µM [1, 21] of the same molecule?
A: 6.34%

Q: What about the inhibition at 25 µM [1, 22] of the same molecule?
A: 40.2%

Q: What about the inhibition at 2.5 µM [1, 23] of the same molecule?
A: 47.4%

Q: And the inhibition at 0.25 µM [1, 24]?
A: 29.8%

Q: What about the “Percent Killed” value ([9]; MCF7, 1 × 10^−4 M) of the same molecule?
A: 68%

Q: And the “Percent Killed” value ([13]; SF-268, 1 × 10^−4 M)?
A: 27%

Q: What about the “Percent Killed” value ([15]; NCI-H460, 1 × 10^−4 M) of the same molecule?
A: 89%
